Test results from patent US8247211B2, “Glycopeptide antibiotics” (American Cyanamid Company, priority 2001, dated 2012).
≈ marks a conversion by molar mass, not a printed value.

Key:
Assay in all cases: In vitro antibacterial evaluation: minimum inhibitory concentration (MIC), broth dilution method
Format in all cases: cell-based
Enterococcus sp. = test system: Enterococcus sp.
Procedure, shortened: (§1)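 Inoculum: 5×10^5 CFU/mL. Range: 64-0.06 μg/mL. Medium: Muller-Hinton II […]; NCCLS M7-A2 broth dilution. Endpoint: lowest concentration inhibiting growth. Strains include methicillin-, penicillin- and/or vancomycin-resistant clinical isolates.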

Escherichia coli = test system: Escherichia coli
Procedure, shortened: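 First, organisms are seeded at 5×10^5 CFU/mL into Muller-Hinton II […]. Next, antibiotic is applied across 64-0.06 μg/mL by broth dilution (NCCLS M7-A2). Finally, the lowest inhibitory concentration is recorded as MIC.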

Streptococcus sp. = test system: Streptococcus sp.
Procedure, shortened: as §1

Staphylococcus sp. = test system: Staphylococcus sp.
Procedure, shortened: as §1

[1] = broth dilution, 5×10^5 CFU/mL, 18 hours at 35° C.
[2] = broth dilution, inoculum 5×10^5 CFU/mL, 18 hours at 35° C.

## CSc1ccc(C2OCC3OC(OC4C(CO)OC(Oc5ccc(CC6NC(=O)C(C(C)c7ccccc7)NC(=O)CNC(=O)C(CO)NC(=O)C(C(O)C7CNC(=N)N7C7OC(CO)C(O)C(O)C7O)NC(=O)C(C(O)C7CNC(=N)N7)NC6=O)cc5)C(O)C4O)C(O)C(O)C3O2)cc1 (stereo not shown) [Example 144]
Enterococcus sp.; strain ATCC 29212
  MIC Enterococcus faecalis (ATCC 29212): 2 µg/mL (≈ 1.4 µM)
Enterococcus sp.; strain GC 2242
  MIC Enterococcus faecalis (GC 2242): 2 µg/mL (≈ 1.4 µM)
Enterococcus sp.; strain GC 2243
  MIC Enterococcus faecium (GC 2243): 2 µg/mL (≈ 1.4 µM)
Enterococcus sp.; strain GC 2691
  MIC Enterococcus faecalis (GC 2691): 2 µg/mL (≈ 1.4 µM)
Enterococcus sp.; strain GC 3059
  MIC Enterococcus faecalis (GC 3059): 4 µg/mL (≈ 2.8 µM)
Enterococcus sp.; strain GC 4552
  MIC Enterococcus faecalis (GC 4552): 2 µg/mL (≈ 1.4 µM)
Enterococcus sp.; strain GC 4553
  MIC Enterococcus faecalis (GC 4553): 4 µg/mL (≈ 2.8 µM)
Enterococcus sp.; strain GC 4554
  MIC Enterococcus faecalis (GC 4554): 4 µg/mL (≈ 2.8 µM)
Enterococcus sp.; strain GC 4556
  MIC Enterococcus faecium (GC 4556): 2 µg/mL (≈ 1.4 µM)
Enterococcus sp.; strain GC 4557
  MIC Enterococcus faecium (GC 4557): 2 µg/mL (≈ 1.4 µM)
Enterococcus sp.; strain GC 4558
  MIC Enterococcus avium (GC 4558): 4 µg/mL (≈ 2.8 µM)
Enterococcus sp.; strain GC 6189
  MIC Enterococcus faecalis (GC 6189): 2 µg/mL (≈ 1.4 µM)
Escherichia coli; strain ATCC 25922
  MIC Escherichia coli (ATCC 25922): 32 µg/mL (≈ 22.4 µM)
Escherichia coli; strain GC 4559
  MIC Escherichia coli (GC 4559): 32 µg/mL (≈ 22.4 µM)
Streptococcus sp.; strain ATCC 6301
  MIC Streptococcus pneumoniae (ATCC 6301): <0.06 µg/mL
Streptococcus sp.; strain GC 1894
  MIC Streptococcus pneumoniae (GC 1894): <0.06 µg/mL
Streptococcus sp.; strain GC 4563
  MIC Streptococcus pyogenes (GC 4563): <0.06 µg/mL
Streptococcus sp.; strain GC 4564
  MIC Streptococcus agalactiae (GC 4564): <0.06 µg/mL
Streptococcus sp.; strain GC 4565
  MIC Streptococcus pneumoniae (GC 4565): <0.06 µg/mL
Staphylococcus sp.; [1]
  MIC Coagulase Negative Staphylococcus (GC 4547): 1 µg/mL (≈ 0.7 µM)
  MIC Coagulase Negative Staphylococcus (GC 4548): 0.25 µg/mL (≈ 0.175 µM)
  MIC Coagulase Negative Staphylococcus (GC 4549): 0.12 µg/mL (≈ 0.0839 µM)
  MIC Coagulase Negative Staphylococcus (GC 4551): 0.5 µg/mL (≈ 0.35 µM)
  MIC Coagulase Negative Staphylococcus (GC 6257): 0.25 µg/mL (≈ 0.175 µM)
  MIC Staphylococcus aureus (ATCC 29213): 2 µg/mL (≈ 1.4 µM)
  MIC Staphylococcus aureus (GC 1131): 1 µg/mL (≈ 0.7 µM)
  MIC Staphylococcus aureus (GC 3051): 1 µg/mL (≈ 0.7 µM)
  MIC Staphylococcus aureus (GC 3053): 1 µg/mL (≈ 0.7 µM)
  MIC Staphylococcus aureus (GC 4541): 0.5 µg/mL (≈ 0.35 µM)
  MIC Staphylococcus aureus (GC 4542): 0.5 µg/mL (≈ 0.35 µM)
  MIC Staphylococcus aureus (GC 4544): 4 µg/mL (≈ 2.8 µM)
  MIC Staphylococcus aureus (GC 4545): 1 µg/mL (≈ 0.7 µM)
  MIC Staphylococcus aureus-SMITH (GC 4543): 1 µg/mL (≈ 0.7 µM)
  MIC Staphylococcus haemolyticus (GC 4546): 1 µg/mL (≈ 0.7 µM)
Staphylococcus sp.; strain ATCC 29213, broth dilution, 18 hours at 35° C.
  MIC Staphylococcus aureus (ATCC 29213): 2 µg/mL (≈ 1.4 µM)
Staphylococcus sp.; strain GC 1131, broth dilution, 18 hours at 35° C.
  MIC Staphylococcus aureus (GC 1131): 1 µg/mL (≈ 0.7 µM)
Staphylococcus sp.; strain GC 3051, broth dilution, 18 hours at 35° C.
  MIC Staphylococcus aureus (GC 3051): 1 µg/mL (≈ 0.7 µM)
Staphylococcus sp.; strain GC 3053, broth dilution, 18 hours at 35° C.
  MIC Staphylococcus aureus (GC 3053): 1 µg/mL (≈ 0.7 µM)
Staphylococcus sp.; strain GC 4541, broth dilution, 18 hours at 35° C.
  MIC Staphylococcus aureus (GC 4541): 0.5 µg/mL (≈ 0.35 µM)
Staphylococcus sp.; strain GC 4542, broth dilution, 18 hours at 35° C.
  MIC Staphylococcus aureus (GC 4542): 0.5 µg/mL (≈ 0.35 µM)
Staphylococcus sp.; strain GC 4543, broth dilution, 18 hours at 35° C.
  MIC Staphylococcus aureus-SMITH (GC 4543): 1 µg/mL (≈ 0.7 µM)
Staphylococcus sp.; strain GC 4544, broth dilution, 18 hours at 35° C.
  MIC Staphylococcus aureus (GC 4544): 4 µg/mL (≈ 2.8 µM)
Staphylococcus sp.; strain GC 4545, broth dilution, 18 hours at 35° C.
  MIC Staphylococcus aureus (GC 4545): 1 µg/mL (≈ 0.7 µM)
Staphylococcus sp.; strain GC 4546, broth dilution, 18 hours at 35° C.
  MIC Staphylococcus haemolyticus (GC 4546): 1 µg/mL (≈ 0.7 µM)
Staphylococcus sp.; strain GC 4547, broth dilution, 18 hours at 35° C.
  MIC Coagulase Negative Staphylococcus (GC 4547): 1 µg/mL (≈ 0.7 µM)
Staphylococcus sp.; strain GC 4548, broth dilution, 18 hours at 35° C.
  MIC Coagulase Negative Staphylococcus (GC 4548): 0.25 µg/mL (≈ 0.175 µM)
Staphylococcus sp.; strain GC 4549, broth dilution, 18 hours at 35° C.
  MIC Coagulase Negative Staphylococcus (GC 4549): 0.12 µg/mL (≈ 0.0839 µM)
Staphylococcus sp.; strain GC 4551, broth dilution, 18 hours at 35° C.
  MIC Coagulase Negative Staphylococcus (GC 4551): 0.5 µg/mL (≈ 0.35 µM)
Staphylococcus sp.; strain GC 6257, broth dilution, 18 hours at 35° C.
  MIC Coagulase Negative Staphylococcus (GC 6257): 0.25 µg/mL (≈ 0.175 µM)

## N=C1NCC(C(O)C2NC(=O)C(Cc3ccc(OC4OC(CO)C(OC5OC6COC(Cc7ccccc7)OC6C(O)C5O)C(O)C4O)cc3)NC(=O)C(CC3CCCCC3)NC(=O)CNC(=O)C(CO)NC(=O)C(C(O)C3CNC(=N)N3C3OC(CO)C(O)C(O)C3O)NC2=O)N1 (stereo not shown) [Example 200, Cyclo[3-cyclohexylalanyl-O-[4-O-[4,6-O-phenethylidene-hexopyranosyl]hexopyranosyl]tyrosyl-3-(2-iminoimidazolidin-4-yl)seryl-3-(3-hexopyranosyl-2-iminoimidazolidin-4-yl)serylserylglycyl]]
Enterococcus sp.; Enterococcus avium (GC 4558), 18 hours at 35° C.
  MIC Enterococcus avium (GC 4558): 4 µg/mL (≈ 2.88 µM)
Enterococcus sp.; Enterococcus faecalis (ATCC 29212), 18 hours at 35° C.
  MIC Enterococcus faecalis (ATCC 29212): 4 µg/mL (≈ 2.88 µM)
Enterococcus sp.; Enterococcus faecalis (GC 2242), 18 hours at 35° C.
  MIC Enterococcus faecalis (GC 2242): 0.5 µg/mL (≈ 0.36 µM)
Enterococcus sp.; Enterococcus faecalis (GC 2691), 18 hours at 35° C.
  MIC Enterococcus faecalis (GC 2691): 4 µg/mL (≈ 2.88 µM)
Enterococcus sp.; Enterococcus faecalis (GC 3059), 18 hours at 35° C.
  MIC Enterococcus faecalis (GC 3059): 2 µg/mL (≈ 1.44 µM)
Enterococcus sp.; Enterococcus faecalis (GC 4552), 18 hours at 35° C.
  MIC Enterococcus faecalis (GC 4552): 2 µg/mL (≈ 1.44 µM)
Enterococcus sp.; Enterococcus faecalis (GC 4553), 18 hours at 35° C.
  MIC Enterococcus faecalis (GC 4553): 4 µg/mL (≈ 2.88 µM)
Enterococcus sp.; Enterococcus faecalis (GC 4554), 18 hours at 35° C.
  MIC Enterococcus faecalis (GC 4554): 4 µg/mL (≈ 2.88 µM)
Enterococcus sp.; Enterococcus faecalis (GC 6189), 18 hours at 35° C.
  MIC Enterococcus faecalis (GC 6189): 2 µg/mL (≈ 1.44 µM)
Enterococcus sp.; Enterococcus faecium (GC 2243), 18 hours at 35° C.
  MIC Enterococcus faecium (GC 2243): 4 µg/mL (≈ 2.88 µM)
Enterococcus sp.; Enterococcus faecium (GC 4556), 18 hours at 35° C.
  MIC Enterococcus faecium (GC 4556): 4 µg/mL (≈ 2.88 µM)
Enterococcus sp.; Enterococcus faecium (GC 4557), 18 hours at 35° C.
  MIC Enterococcus faecium (GC 4557): 2 µg/mL (≈ 1.44 µM)
Enterococcus sp.; [2]
  MIC Enterococcus avium (GC 4558): 4 µg/mL (≈ 2.88 µM)
  MIC Enterococcus faecalis (ATCC 29212): 4 µg/mL (≈ 2.88 µM)
  MIC Enterococcus faecalis (GC 2242): 0.5 µg/mL (≈ 0.36 µM)
  MIC Enterococcus faecalis (GC 2691): 4 µg/mL (≈ 2.88 µM)
  MIC Enterococcus faecalis (GC 3059): 2 µg/mL (≈ 1.44 µM)
  MIC Enterococcus faecalis (GC 4552): 2 µg/mL (≈ 1.44 µM)
  MIC Enterococcus faecalis (GC 4553): 4 µg/mL (≈ 2.88 µM)
  MIC Enterococcus faecalis (GC 4554): 4 µg/mL (≈ 2.88 µM)
  MIC Enterococcus faecalis (GC 6189): 2 µg/mL (≈ 1.44 µM)
  MIC Enterococcus faecium (GC 2243): 4 µg/mL (≈ 2.88 µM)
  MIC Enterococcus faecium (GC 4556): 4 µg/mL (≈ 2.88 µM)
  MIC Enterococcus faecium (GC 4557): 2 µg/mL (≈ 1.44 µM)
Escherichia coli; Escherichia coli (ATCC 25922), 18 hours at 35° C.
  MIC Escherichia coli (ATCC 25922): 32 µg/mL (≈ 23 µM)
Escherichia coli; Escherichia coli (GC 4559), 18 hours at 35° C.
  MIC Escherichia coli (GC 4559): 32 µg/mL (≈ 23 µM)
Escherichia coli; Escherichia coli (GC 4560), 18 hours at 35° C.
  MIC Escherichia coli (GC 4560): 1 µg/mL (≈ 0.72 µM)
Streptococcus sp.; Streptococcus agalactiae (GC 4564), 18 hours at 35° C.
  MIC Streptococcus agalactiae (GC 4564): 0.12 µg/mL (≈ 0.0864 µM)
Streptococcus sp.; Streptococcus pneumoniae (ATCC 6301), 18 hours at 35° C.
  MIC Streptococcus pneumoniae (ATCC 6301): <0.06 µg/mL
Streptococcus sp.; Streptococcus pneumoniae (GC 1894), 18 hours at 35° C.
  MIC Streptococcus pneumoniae (GC 1894): <0.06 µg/mL
Streptococcus sp.; Streptococcus pneumoniae (GC 4565), 18 hours at 35° C.
  MIC Streptococcus pneumoniae (GC 4565): <0.06 µg/mL
Streptococcus sp.; Streptococcus pyogenes (GC 4563), 18 hours at 35° C.
  MIC Streptococcus pyogenes (GC 4563): <0.06 µg/mL
Streptococcus sp.; [2]
  MIC Streptococcus agalactiae (GC 4564): 0.12 µg/mL (≈ 0.0864 µM)
  MIC Streptococcus pneumoniae (ATCC 6301): <0.06 µg/mL
  MIC Streptococcus pneumoniae (GC 1894): <0.06 µg/mL
  MIC Streptococcus pneumoniae (GC 4565): <0.06 µg/mL
  MIC Streptococcus pyogenes (GC 4563): <0.06 µg/mL
Staphylococcus sp.; strain ATCC 29213
  MIC Staphylococcus aureus (ATCC 29213): 1 µg/mL (≈ 0.72 µM)
Staphylococcus sp.; strain GC 1131
  MIC Staphylococcus aureus (GC 1131): 2 µg/mL (≈ 1.44 µM)
Staphylococcus sp.; strain GC 3051
  MIC Staphylococcus aureus (GC 3051): 1 µg/mL (≈ 0.72 µM)
Staphylococcus sp.; strain GC 3053
  MIC Staphylococcus aureus (GC 3053): 2 µg/mL (≈ 1.44 µM)
Staphylococcus sp.; strain GC 4541
  MIC Staphylococcus aureus (GC 4541): 1 µg/mL (≈ 0.72 µM)
Staphylococcus sp.; strain GC 4542
  MIC Staphylococcus aureus (GC 4542): 1 µg/mL (≈ 0.72 µM)
Staphylococcus sp.; strain GC 4543
  MIC Staphylococcus aureus-SMITH (GC 4543): 1 µg/mL (≈ 0.72 µM)
Staphylococcus sp.; strain GC 4544
  MIC Staphylococcus aureus (GC 4544): 2 µg/mL (≈ 1.44 µM)
Staphylococcus sp.; strain GC 4545
  MIC Staphylococcus aureus (GC 4545): 1 µg/mL (≈ 0.72 µM)
Staphylococcus sp.; strain GC 4546
  MIC Staphylococcus haemolyticus (GC 4546): 1 µg/mL (≈ 0.72 µM)
Staphylococcus sp.; strain GC 4547
  MIC Coagulase Negative Staphylococcus (GC 4547): 2 µg/mL (≈ 1.44 µM)
Staphylococcus sp.; strain GC 4548
  MIC Coagulase Negative Staphylococcus (GC 4548): 1 µg/mL (≈ 0.72 µM)
Staphylococcus sp.; strain GC 4549
  MIC Coagulase Negative Staphylococcus (GC 4549): 1 µg/mL (≈ 0.72 µM)
Staphylococcus sp.; strain GC 4551
  MIC Coagulase Negative Staphylococcus (GC 4551): 2 µg/mL (≈ 1.44 µM)
